Source: patent US20250241893A1, “TREATMENT OF COGNITIVE DYSFUNCTION” (GH RESEARCH IRELAND LIMITED, priority 2022, published 2025)
“Also recorded” adds a separate entry of the source.

Test system: patients with postpartum depression (PPD)
Assay: Clinical trial of inhaled 5-MeO-DMT in postpartum depression
Conditions: one PPD patient
Experimental: The single-arm, open-label clinical trial will involve 15 adult female patients with clinically diagnosed postpartum depression (PPD).
The second dose (12 mg) will only be administered if: • a. A peak experience (total score of • 75) has not been achieved following the 6 mg dose, and • b. The 6 mg dose was safe and well-tolerated according to the investigator, • c. Any psychoactive effects (PsE) of the prior dose have subsided, and • d. Pre-dose vital parameters and forced expiratory volume in one second (FEV1) are in normal range, or if outside of the normal range, are not clinically significant according to the investigator. • 3. Similarly, a third dose (18 mg) will only be administered if: • a. A peak experience (total score of • 75) has not been achieved following the 12 mg dose, and • b. The 12 mg dose was safe and well-tolerated according to the investigator, and • c. Any PsE of the prior dose have subsided, and • d. Pre-dose vital parameters and forced expiratory volume in one second (FEV1) are in normal range, or if outside of the normal range, are not clinically significant according to the investigator.
The patients will be assessed for a peak psychedelic experience (based on a patient-scored visual analogue scale, the PE scale), sedation, and other endpoints after dosing.
Follow-up visits are planned for Day 1, and Day 7 after the dosing day.
The following criteria must be met by all patients considered for clinical trial participation: • 1. Is female and in the age range between 18 and 45 years (inclusive) at screening. • 2. Has a body mass index (BMI) in the range of 18.5 and 35 kg/m^2 (inclusive) at screening. • 3. Meets the trial criteria for PPD as assessed by a trial psychiatrist or registered psychologist: • a. Diagnosis of Major Depressive Disorder without psychotic features, confirmed by the Mini-International Neuropsychiatric Interview (MINI), with peri-partum onset that began no earlier than gestation and no later than the first 4 weeks postpartum. • b. Has a Montgomery-Asberg Depression Rating Scale (MADRS) total score of equal to or greater than 28 at screening and pre-dose on Day 0. • 6. […] Patients must have a negative pregnancy test at screening and on the pre-test day (Day −1). • 5. Is willing to delay start of other antidepressant or anxiety medication until after the end of the trial at Day 7 and agrees to keep any psychotherapy unchanged during the trial.
A potential patient who meets any of the following key exclusion criteria will be excluded from participation in this trial: • 1. Has, based on history, psychiatric assessment, and evaluation of the MINI, a current or prior diagnosis of bipolar disorder, a manic or hypomanic episode, a psychotic disorder, Major Depressive Disorder (MDD) or other mood disorder with psychotic features, obsessive compulsive disorder, post-traumatic stress disorder (PTSD), autism spectrum disorder, borderline personality disorder, schizophrenia, delusional disorder, paranoid personality disorder, schizoaffective disorder, clinically significant intellectual disability, or any other psychiatric comorbidity that renders the patient unsuitable for the trial according to the investigator's judgment. • 2. Has one or more first or second degree relatives with a current or previously diagnosed bipolar disorder, psychotic disorder or other mood disorder (including MDD) with psychotic features. • 3. Is in the judgement of a trial psychiatrist or registered psychologist, at significant risk for suicide based on history, psychiatric assessment, and evaluation of suicidal ideation and suicidal behaviour based on the Columbia-Suicide Severity Rating Scale (C-SSRS). • 4. Has taken anti-depressive medication within 14 days or 5 half-lives (whichever is longer) prior to dosing (exception: within the last 5 weeks in the case of fluoxetine). • 5.

## COc1ccc2[nH]cc(CCN(C)C)c2c1 [5-MeO-DMT]
  ECG (3 hours), safety laboratory analyses (7 days), CADSS (3 hours, 1 day, 7 days): unremarkable
  MADRS remission (MADRS total score equal or less than 10): fulfilled
  MADRS response (at least 50% improvement from baseline): fulfilled
  Reported adverse events (cramping left abdominal pain and headache, Day 0): mild, short-lasting and resolved spontaneously
2 hr, baseline 29
  Total MADRS improvement: 24
  Total MADRS score: 5
Day 1, baseline 3
  MADRS Lassitude score: 0
Day 1, baseline 6
  BPRS Tension improvement: 5
Day 1, baseline 29
  Total MADRS improvement: 29
  Total MADRS score: 0
Day 7, Day 0 score 3
  BIMF item 16 (I worry about how other people judge me (as a mother)) score: 5
Day 7, Day 0 score 5
  BIMF item 10 (I trust my own feelings (instincts) when taking care of my baby) score: 6
Day 7, Day 0 score 5, maximum possible 12
  BIMF functional domain Adjustment score: 6
Day 7, Day 0 score 9, maximum possible 18
  BIMF functional domain Self Care score: 13
Day 7, Day 0 score 12, maximum possible 12
  BIMF functional domain Infant Care score: 12
Day 7, Day 0 score 15, maximum possible 18
  BIMF functional domain Mother-Child Interaction score: 17
Day 7, Day 0 score 17, maximum possible 18
  BIMF functional domain Social Support score: 18
Day 7, Day 0 score 28, maximum possible 36
  BIMF functional domain Management score: 33
Day 7, Day 0 score 44, maximum possible 60
  BIMF functional domain Psychological Well-being score: 53
Day 7, baseline 29
  Total MADRS improvement: 28
  Total MADRS score: 1
Day 7, from 92 to 105 (possible total 120)
  BIMF total score percentage improvement: 14%
Day 7 vs Day 0
  BIMF TOTAL Δ (Day 7): 13
  BIMF functional domain Adjustment % improvement: 20.00%
  BIMF functional domain Infant Care % improvement: 0.00%
  BIMF functional domain Management % improvement: 18%
  BIMF functional domain Self Care % improvement: 44%
IDR
  Time to clinical remission after administration: ≤ 2 h
IDR 6 mg then 12 mg
  Tolerability of inhaled 5-MeO-DMT: well tolerated with no inhalation-related adverse events; also recorded: well tolerated
discharge, baseline 6
  BPRS Tension improvement: 5
Shortly after administration
  Changes in vital parameters: temporary, clinically non-relevant increase in heart rate and blood pressure
